Test results published in publication PMC6001238, “Iterative Chemical Engineering of Vancomycin Leads to Novel Vancomycin Analogs With a High in Vitro Therapeutic Index” (Frontiers in Microbiology, 2018).
Converted amounts (≈) assume the structure as drawn.

Assays:
E. faecalis VRE 53 = assay: MIC, broth microdilution, vancomycin-resistant E. faecalis VRE 53 (VanA); format: cell-based, Enterococcus faecalis; details: for MIC: Enterococcus faecalis VRE 53 (vancomycin-resistant), read-out: MIC; for MIC-fold improvement vs. vancomycin: VRE 53, ratio of MIC of vancomycin and MIC of analogue
Summary of the method: (§1)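 Assayed by broth microdilution under CLSI antimicrobial testing rules. One case paired the analog or control drug with vancomycin at a 10 μM final concentration; water and inoculum-free broth were controls.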

[1] = test system: Murine leukemia (L1210) cells; assay: Cytostatic activity, L1210 cell proliferation; format: cell-based; details: mean ± SD of three experiments; highest concentration tested 250 µM; 2 days; read-out: Toxicity (IC50) L1210
Summary of the method: (§2)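 Suspensions (300,000–500,000 cells/mL) combined with equal volumes of diluted compound; 37°C; L1210 2 d / CEM 3 d / HeLa 4 d; counted by Coulter counter; IC50 vs untreated wells.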

E. faecalis VRE 37 = assay: MIC, broth microdilution, vancomycin-resistant E. faecalis VRE 37 (VanA); format: cell-based, Enterococcus faecalis; details: for MIC: Enterococcus faecalis VRE 37 (vancomycin-resistant), read-out: MIC; for MIC-fold improvement vs. vancomycin: VRE 37, ratio of MIC of vancomycin and MIC of analogue
Summary of the method: as §1

MRSA KS89 = assay: MIC, broth microdilution, MRSA KS89; format: cell-based, Staphylococcus aureus; details: for MIC-fold improvement vs. vancomycin: MRSA KS8, ratio of MIC of vancomycin and MIC of analogue; for MIC: Staphylococcus aureus MRSA KS8, read-out: MIC
Summary of the method: as §1

[2] = test system: L1210, CEM and HeLa cell lines; assay: Cytostatic activity, average or summary over L1210, CEM and HeLa; format: cell-based; details: average of L1210, CEM and HeLa; read-out: Toxicity (IC50) Average
Summary of the method: as §2

[3] = test system: human cervix carcinoma (HeLa) cells; assay: Cytostatic activity, HeLa cell proliferation; format: cell-based; details: mean ± SD of three experiments; highest concentration tested 250 µM; 4 days; read-out: Toxicity (IC50) HeLa
Summary of the method: as §2

E. faecalis VRE 6 = assay: MIC, broth microdilution, vancomycin-resistant E. faecalis VRE 6 (VanA); format: cell-based, Enterococcus faecalis; details: for MIC: Enterococcus faecalis VRE 6 (vancomycin-resistant), read-out: MIC; for MIC-fold improvement vs. vancomycin: VRE 6, ratio of MIC of vancomycin and MIC of analogue
Summary of the method: as §1

MRSA KS1 = assay: MIC, broth microdilution, MRSA KS1; format: cell-based, Staphylococcus aureus; details: for MIC-fold improvement vs. vancomycin: MRSA KS1, ratio of MIC of vancomycin and MIC of analogue; for MIC: Staphylococcus aureus MRSA KS1, read-out: MIC
Summary of the method: as §1

E. faecalis VSE 1 = assay: MIC, broth microdilution, vancomycin-sensitive E. faecalis (VSE 1); format: cell-based, Enterococcus faecalis; details: for MIC: Enterococcus faecalis VSE 1 (vancomycin-sensitive), read-out: MIC; for MIC-fold improvement vs. vancomycin: VSE 1, ratio of MIC of vancomycin and MIC of analogue
Summary of the method: as §1

MRSA KS6 = assay: MIC, broth microdilution, MRSA KS6; format: cell-based, Staphylococcus aureus; details: for MIC-fold improvement vs. vancomycin: MRSA KS6, ratio of MIC of vancomycin and MIC of analogue; for MIC: Staphylococcus aureus MRSA KS6, read-out: MIC
Summary of the method: as §1

S. aureus VRSA = assay: MIC, broth microdilution, vancomycin-resistant S. aureus (VRSA); format: cell-based, Staphylococcus aureus; details: for MIC: Staphylococcus aureus VRSA, read-out: MIC; for MIC-fold improvement vs. vancomycin: VRSA, ratio of MIC of vancomycin and MIC of analogue
Summary of the method: as §1

E. faecalis VRE 29 = assay: MIC, broth microdilution, vancomycin-resistant E. faecalis VRE 29 (VanA); format: cell-based, Enterococcus faecalis; details: for MIC: Enterococcus faecalis VRE 29 (vancomycin-resistant), read-out: MIC; for MIC-fold improvement vs. vancomycin: VRE 29, ratio of MIC of vancomycin and MIC of analogue
Summary of the method: as §1

[4] = test system: human T-lymphocyte (CEM) cells; assay: Cytostatic activity, CEM cell proliferation; format: cell-based; details: mean ± SD of three experiments; highest concentration tested 250 µM; 3 days; read-out: Toxicity (IC50) CEM
Summary of the method: as §2

S. aureus VISA/HIP5827 = assay: MIC, broth microdilution, vancomycin-intermediate S. aureus VISA HIP5827; format: cell-based, Staphylococcus aureus; details: for MIC: Staphylococcus aureus VISA/HIP5827, read-out: MIC; for MIC-fold improvement vs. vancomycin: VISA/HIP5827, ratio of MIC of vancomycin and MIC of analogue
Summary of the method: as §1

[5] = test system: S. aureus VSSA (ATCC 6538); assay: MIC, broth microdilution, vancomycin-sensitive S. aureus (VSSA/MSSA, ATCC 6538); format: cell-based, Staphylococcus aureus; details: for MIC: Staphylococcus aureus VSSA, read-out: MIC; for MIC-fold improvement vs. vancomycin: VSSA, ratio of MIC of vancomycin and MIC of analogue
Summary of the method: as §1

MRSA KS2 = assay: MIC, broth microdilution, MRSA KS2; format: cell-based, Staphylococcus aureus; details: for MIC-fold improvement vs. vancomycin: MRSA KS2, ratio of MIC of vancomycin and MIC of analogue; for MIC: Staphylococcus aureus MRSA KS2, read-out: MIC
Summary of the method: as §1

Row | MIC (E. faecalis VRE 53) | MIC-fold improvement vs. vancomycin (E. faecalis VRE 53) | MIC (E. faecalis VRE 37) | MIC-fold improvement vs. vancomycin (E. faecalis VRE 37) | MIC-fold improvement vs. vancomycin (MRSA KS89) | MIC (MRSA KS89) | MIC (E. faecalis VRE 6) | MIC-fold improvement vs. vancomycin (E. faecalis VRE 6) | MIC-fold improvement vs. vancomycin (MRSA KS1) | MIC (MRSA KS1) | MIC (E. faecalis VSE 1) | MIC-fold improvement vs. vancomycin (E. faecalis VSE 1) | MIC-fold improvement vs. vancomycin (MRSA KS6) | MIC (MRSA KS6) | MIC (S. aureus VRSA) | MIC-fold improvement vs. vancomycin (S. aureus VRSA) | MIC (E. faecalis VRE 29) | Compound | IC50 [1] | IC50 [2] | IC50 [3] | further results
1 | 25 µM (≈ 41.9 µg/mL) | 16 | 25 µM (≈ 41.9 µg/mL) | 16 | 2 | 0.39 µM (≈ 0.653 µg/mL) | 3.13 µM (≈ 5.24 µg/mL) | 64 | 2 | 0.39 µM (≈ 0.653 µg/mL) | 0.39 µM (≈ 0.653 µg/mL) | 4 | 2 | 0.39 µM (≈ 0.653 µg/mL) | 3.13 µM (≈ 5.24 µg/mL) | 32 | 12.5 µM (≈ 20.9 µg/mL) | CNC(CC(C)C)C(=O)NC1C(=O)NC(CC(N)=O)C(=O)NC2C(=O)NC3C(=O)NC(C(=O)NC(C(=O)NCCCNC(=O)c4ccc5cc(O)ccc5c4)c4cc(O)cc(O)c4-c4cc3ccc4O)C(O)c3ccc(c(Cl)c3)Oc3cc2cc(c3OC2OC(CO)C(O)C(O)C2OC2CC(C)(N)C(O)C(C)O2)Oc2ccc(cc2Cl)C1O (stereo not drawn) [Vanc-30] | > 250 µM | 182 µM | 45 ± 25 µM | MIC-fold improvement vs. vancomycin (E. faecalis VRE 29): 32; IC50 [4]: > 250 µM; MIC (S. aureus VISA/HIP5827): 0.39 µM (≈ 0.653 µg/mL); MIC-fold improvement vs. vancomycin (S. aureus VISA/HIP5827): 16; MIC [5]: 0.39 µM (≈ 0.653 µg/mL); MIC-fold improvement vs. vancomycin [5]: 2; MIC-fold improvement vs. vancomycin (MRSA KS2): 2; MIC (MRSA KS2): 0.39 µM (≈ 0.653 µg/mL)
2 | 3.13 µM (≈ 5.35 µg/mL) | 128 | 1.56 µM (≈ 2.66 µg/mL) | 256 | 4 | 0.20 µM (≈ 0.342 µg/mL) | 0.39 µM (≈ 0.666 µg/mL) | 513 | 1 | 0.78 µM (≈ 1.33 µg/mL) | 0.39 µM (≈ 0.666 µg/mL) | 4 | 4 | 0.20 µM (≈ 0.342 µg/mL) | 0.78 µM (≈ 1.33 µg/mL) | 128 | 1.56 µM (≈ 2.66 µg/mL) | CCCCCCCc1ccc(C(=O)NCCCNC(=O)C2NC(=O)C3NC(=O)C(NC(=O)C4NC(=O)C(CC(N)=O)NC(=O)C(NC(=O)C(CC(C)C)NC)C(O)c5ccc(c(Cl)c5)Oc5cc4cc(c5OC4OC(CO)C(O)C(O)C4OC4CC(C)(N)C(O)C(C)O4)Oc4ccc(cc4Cl)C3O)c3ccc(O)c(c3)-c3c(O)cc(O)cc32)cc1 (stereo not drawn) [Vanc-31] | 8.8 ± 0.6 µM | 37 µM | 86 ± 14 µM | MIC-fold improvement vs. vancomycin (E. faecalis VRE 29): 256; IC50 [4]: 17 ± 5 µM; MIC (S. aureus VISA/HIP5827): 0.05 µM (≈ 0.0854 µg/mL); MIC-fold improvement vs. vancomycin (S. aureus VISA/HIP5827): 128; MIC [5]: 0.20 µM (≈ 0.342 µg/mL); MIC-fold improvement vs. vancomycin [5]: 4; MIC-fold improvement vs. vancomycin (MRSA KS2): 4; MIC (MRSA KS2): 0.20 µM (≈ 0.342 µg/mL)
3 | 50 µM (≈ 83.9 µg/mL) | 8 | 25 µM (≈ 41.9 µg/mL) | 16 | 2 | 0.39 µM (≈ 0.654 µg/mL) | 3.13 µM (≈ 5.25 µg/mL) | 64 | 2 | 0.39 µM (≈ 0.654 µg/mL) | 0.39 µM (≈ 0.654 µg/mL) | 4 | 2 | 0.39 µM (≈ 0.654 µg/mL) | 6.25 µM (≈ 10.5 µg/mL) | 16 | 12.5 µM (≈ 21 µg/mL) | CNC(CC(C)C)C(=O)NC1C(=O)NC(CC(N)=O)C(=O)NC2C(=O)NC3C(=O)NC(C(=O)NC(C(=O)NCCCNC(=O)c4ccc(C(F)(F)F)cc4)c4cc(O)cc(O)c4-c4cc3ccc4O)C(O)c3ccc(c(Cl)c3)Oc3cc2cc(c3OC2OC(CO)C(O)C(O)C2OC2CC(C)(N)C(O)C(C)O2)Oc2ccc(cc2Cl)C1O (stereo not drawn) [Vanc-32] | 164 ± 46 µM | 157 µM | 106 ± 2 µM | MIC-fold improvement vs. vancomycin (E. faecalis VRE 29): 32; IC50 [4]: 200 ± 12 µM; MIC (S. aureus VISA/HIP5827): 0.78 µM (≈ 1.31 µg/mL); MIC-fold improvement vs. vancomycin (S. aureus VISA/HIP5827): 8; MIC [5]: 0.78 µM (≈ 1.31 µg/mL); MIC-fold improvement vs. vancomycin [5]: 1; MIC-fold improvement vs. vancomycin (MRSA KS2): 2; MIC (MRSA KS2): 0.39 µM (≈ 0.654 µg/mL)
